Measured values taken from the NIST ThermoML archive (doi:10.1016/j.fluid.2011.01.018).
± gives the expanded uncertainty stated by the source.

Columns and labels:
[1] = 101 kPa, Liquid, Vibrating tube method
[2] = xn = mol fraction of the nth substance listed; settings: 101 kPa, Liquid, Vibrating tube method

CC(C)CC(C)(C)C [2,2,4-trimethylpentane]
[1]
Settings | mass density [kg/m3]
293 K | 691.88 ± 0.19
303 K | 683.64 ± 0.2
313 K | 675.3 ± 0.2
323 K | 666.84 ± 0.2

CC(C)CC(C)(C)C [2,2,4-trimethylpentane] + c1ccccc1
mass density [kg/m3], [2]
Settings | x2 = 0 | x2 = 0.1248 | x2 = 0.1642 | x2 = 0.3682 | x2 = 0.4538 | x2 = 0.502 | x2 = 0.5388 | x2 = 0.6023 | x2 = 0.6896 | x2 = 0.9443
293 K | 691.88 ± 0.19 | 704.06 ± 0.19 | 708.26 ± 0.19 | 733.74 ± 0.19 | 746.53 ± 0.18 | 754.34 ± 0.18 | 760.7 ± 0.18 | 772.44 ± 0.18 | 790.37 ± 0.18 | 859.13 ± 0.17
303 K | 683.64 ± 0.2 | 695.66 ± 0.19 | 699.8 ± 0.19 | 724.94 ± 0.19 | 737.57 ± 0.19 | 745.27 ± 0.18 | 751.54 ± 0.18 | 763.15 ± 0.18 | 780.86 ± 0.18 | 848.73 ± 0.17
313 K | 675.3 ± 0.2 | 687.16 ± 0.2 | 691.24 ± 0.2 | 716.05 ± 0.19 | 728.51 ± 0.19 | 736.12 ± 0.19 | 742.33 ± 0.19 | 753.77 ± 0.18 | 771.25 ± 0.18 | 838.26 ± 0.17
323 K | 666.84 ± 0.2 | 678.53 ± 0.2 | 682.55 ± 0.2 | 707.04 ± 0.19 | 719.33 ± 0.19 | 726.85 ± 0.19 | 732.96 ± 0.19 | 744.28 ± 0.18 | 761.54 ± 0.18 | 827.7 ± 0.17

c1ccccc1 [benzene]
[1]
Settings | mass density [kg/m3]
293 K | 878.98 ± 0.16
303 K | 868.3 ± 0.16
313 K | 857.57 ± 0.16
323 K | 846.76 ± 0.17

c1ccccc1 [benzene] + C1CCCCC1
[2], x1 = 1
Settings | mass density [kg/m3]
293 K | 878.98 ± 0.16
303 K | 868.3 ± 0.16
313 K | 857.57 ± 0.16
323 K | 846.76 ± 0.17

c1ccccc1 [benzene] + CC(C)CC(C)(C)C
[2], x1 = 1
Settings | mass density [kg/m3]
293 K | 878.98 ± 0.16
303 K | 868.3 ± 0.16
313 K | 857.57 ± 0.16
323 K | 846.76 ± 0.17

C1CCCCC1 [cyclohexane]
[1]
Settings | mass density [kg/m3]
293 K | 778.54 ± 0.16
303 K | 769.13 ± 0.16
313 K | 759.6 ± 0.16
323 K | 749.94 ± 0.17

C1CCCCC1 [cyclohexane] + c1ccccc1
mass density [kg/m3], [2]
Settings | 293 K | 303 K | 313 K | 323 K
x2 = 0 | 778.54 ± 0.16 | 769.13 ± 0.16 | 759.6 ± 0.16 | 749.94 ± 0.17
x2 = 0.1 | 784.99 ± 0.16 | 775.47 ± 0.16 | 765.87 ± 0.16 | 756.14 ± 0.16
x2 = 0.1805 | 790.71 ± 0.16 | 781.14 ± 0.16 | 771.46 ± 0.16 | 761.67 ± 0.16
x2 = 0.2347 | 794.92 ± 0.16 | 785.3 ± 0.16 | 775.57 ± 0.16 | 765.73 ± 0.16
x2 = 0.3029 | 800.47 ± 0.16 | 790.79 ± 0.16 | 781 ± 0.16 | 771.1 ± 0.16
x2 = 0.3801 | 807.1 ± 0.16 | 797.33 ± 0.16 | 787.47 ± 0.16 | 777.5 ± 0.16
x2 = 0.4453 | 813.09 ± 0.16 | 803.25 ± 0.16 | 793.32 ± 0.16 | 783.27 ± 0.16
x2 = 0.5223 | 820.56 ± 0.16 | 810.63 ± 0.16 | 800.62 ± 0.16 | 790.48 ± 0.16
x2 = 0.5814 | 826.62 ± 0.16 | 816.62 ± 0.16 | 806.53 ± 0.16 | 796.34 ± 0.16
x2 = 0.6563 | 834.72 ± 0.16 | 824.62 ± 0.16 | 814.44 ± 0.16 | 804.14 ± 0.16
x2 = 0.7135 | 841.21 ± 0.16 | 831.03 ± 0.16 | 820.77 ± 0.16 | 810.41 ± 0.16
x2 = 0.7654 | 847.44 ± 0.16 | 837.18 ± 0.16 | 826.83 ± 0.16 | 816.41 ± 0.16
x2 = 0.8191 | 854.16 ± 0.16 | 843.82 ± 0.16 | 833.39 ± 0.16 | 822.89 ± 0.16
x2 = 0.8771 | 861.75 ± 0.16 | 851.31 ± 0.16 | 840.79 ± 0.16 | 830.19 ± 0.16
x2 = 0.9161 | 867.03 ± 0.16 | 856.52 ± 0.16 | 845.95 ± 0.16 | 835.28 ± 0.17
